Reference: PMC3001719, “The heme sensing response regulator HssR in Staphylococcus aureus but not the homologous RR23 in Listeria monocytogenes modulates susceptibility to the antimicrobial peptide plectasin” (BMC Microbiology, 2010)

Assays:
Type in all cases: cell-based, Staphylococcus aureus
S. aureus = assay: ATP leakage (intracellular and extracellular ATP, bioluminescence); details: S. aureus, 500 μg/ml peptide, 50 mM HEPES pH 7.0 with 0.2% glucose, vs peptide dilution buffer; two independent experiments
Procedure: L. monocytogenes and S. aureus were grown in TSB at 37°C. Bacteria were harvested (10 min at 3000 RPM) at mid-exponential phase (absorbance at 546 nm of 2.5 ± 0.2 and 1.0 ± 0.2 for S. aureus and L. monocytogenes, respectively), washed once in 50 mM potassium phosphate buffer pH 7.0 and once in 50 mM HEPES buffer pH 7.0. The pellet was resuspended in 50 mM HEPES pH 7.0 to a final absorbance at 546 nm of 10. Bacteria were stored on ice and used within 5 hours. […] ATP was determined using a bioluminescence kit (Sigma, FLAA-1KT) and a BioOrbit 1253 luminometer. Total ATP content was determined by rapidly permeabilising 20 μl cell suspension with 80 μl dimethyl sulfoxide. The cell suspension was diluted in 4.9 ml sterile water, and ATP content was determined in 100 μl of the preparation as described by the manufacturer. To determine the extracellular ATP concentration, the 20 μl cell suspension was mixed with 80 μl sterile water and analyzed as described above. Intracellular ATP concentrations were calculated by using the intracellular volumes of 0.85 and 1.7 μm^3 for S. aureus and L. monocytogenes, respectively. The number of cells in suspension was determined by plate spreading.

[1] = tested on: S. aureus 8325-4 hssR mutant; assay: Growth in TSB with plectasin and/or hemin; details: plectasin 35 μg/ml, 37°C, absorbance at 600 nm, transduced 8325-4 hssR mutant
Procedure: (§1) Overnight cultures of S. aureus were diluted to an absorbance at 600 nm of 0.05 in TSB with and without 4 μM hemin and/or 35 μg/ml plectasin and grown at 37°C. Measurements of the absorbance were made every 30 minutes.

[2] = tested on: S. aureus 8325-4 wild type; assay: Growth in TSB with plectasin and/or hemin; details: plectasin 35 μg/ml, 37°C, absorbance at 600 nm
Procedure: as §1

[3] = tested on: hrtB and hssR expression in wild type S. aureus; assay: Expression of hrtB and hssR, northern blot and quantitative real-time PCR; details: plectasin 35 μg/ml, 10 and 90 minutes, northern blot and quantitative real-time PCR (P > 0.05)
Procedure: Wild type S. aureus and the hssR mutant were grown to an absorbance at 600 nm of 0.45 ± 0.1, samples were withdrawn for the isolation of RNA. Plectasin (35 μg/ml) was added to the growing culture, and after 10 and 90 minutes samples were also withdrawn. Cells were quickly cooled and lysed mechanically using the FastPrep machine (Bio101; Q-biogene), and RNA was isolated by the RNeasy kit (QIAGEN, Valencia, Calif.) according to the manufacturer's instructions. Northern Blotting: RNA was transferred to a nylon membrane (Boehringer Mannheim) by capillary blotting as previously described. Hybridization was performed using gene-specific probes that had been labelled with [^32P]dCTP using the Ready-to-Go DNA-labelling beads from Amersham Biosciences. Primers for probes amplifying hrtB and hssR: hrtB-1F:(5'[…]3'), hrtB-2R: (5'[…]3'), hssR-1F: (5'[…]3'), hssR-2R:(5' […]3'). All steps were repeated in two independent experiments giving similar results. Quantitative RT-PCR: RNA was treated with DNase and RevertAid™ H Minus first strand cDNA synthesis Kit (Fermentas). […] Statistical analysis on QRTPCR results using GraphPad prism5, 1Way Anova with Dunnett's Multiple comparison test (GraphPad Software, Inc) determined changes in expression comparing time 0 to time 10 minutes or 90 minutes.

[4] = tested on: S. aureus wild type and hssR mutants; assay: Extracellular protein profile by SDS-PAGE; details: S. aureus wild type and hssR mutants grown with or without plectasin overnight at 37°C in TSB; data not shown
Procedure: Prewarmed TSB and BHI (25 ml) in a 250 ml Erlenmeyer flask was inoculated with S. aureus strains and L. monocytogenes strains, respectively. These flasks were grown with and without plectasin at 37°C overnight (≈ 17 h) with shaking. The next morning, the exact absorbance at 600 nm of the cultures was measured, and 15 ml of culture was centrifuged to precipitate the cells (6 000 RPM; 7 min; 0°C). The supernatant was transferred to a 50 ml Blue cap bottle (placed in an ice/water bath), and the extracellular proteins were precipitated by adding one volume of ice-cold 96% EtOH and left in the refrigerator overnight for proteins to precipitate. Precipitated proteins were collected by centrifugation (11,000 RPM; 30 min; 0°C). Protein pellets were suspended in a volume of 50 mM Tris-HCl (pH 6.8) adjusted to the original absorbance of the overnight culture so that 15 ml of overnight culture with absorbance at 600 nm of 5.0 was suspended in 0.8 ml of 50 mM Tris-HCl (pH 6.8). A sample of 15 μl of the protein extracts was analysed on NuPAGE® 4-12% Bis-Tris gels (Invitrogen) using the X Cell SureLock® Mini-Cell system (Invitrogen) as recommended by the supplier. The gels were Coomassie stained using GelCode® Blue Stain Reagent (Pierce).

S. aureus wild type = assay: Spontaneous mutation control on plectasin plates; details: S. aureus wild type grown on TSB with 4, 5 or 10 fold MIC of plectasin
Procedure: The transposon mutant libraries were screened on agar plates for increased resistance to plectasin as compared to wild-type sensitivity. Wild-type sensitivity was determined by plating approx. 1.0 × 10^7 CFU/ml on TSB agar containing plectasin (S. aureus) and approx. 1.0 × 10^5 CFU/ml on Muller Hinton Broth agar plates (MHB, 212322 Becton Dickinson) with plectasin (L. monocytogenes). Plates were incubated at 37°C for 3 days and inspected for growth. The transposon libraries were screened on TSB agar with 300 μg/ml, 500 or 750 μg/ml plectasin (S. aureus) or MHB plates with 250 μg/ml or 500 μg/ml plectasin (L. monocytogenes) at 37°C for up to 7 days.

`CC[C@H](C)[C@@H]1NC(=O)[C@H](CO)NC(=O)[C@H](CCCCN)NC(=O)[C@@H]2CSSC[C@@H](C(=O)N[C@@H](Cc3ccc(O)cc3)C(=O)O)NC(=O)[C@H](CCCCN)NC(=O)[C@@H]3CSSC[C@H](NC(=O)[C@H](CCC(N)=O)NC(=O)[C@H](CCSC)NC(=O)[C@H](CC(=O)O)NC(=O)[C@H](CC(=O)O)NC(=O)[C@H](CCC(=O)O)NC(=O)[C@H](CC(=O)O)NC(=O)[C@H](Cc4c[nH]c5ccccc45)NC(=O)[C@@H]4CCCN4C(=O)CNC(=O)[C@H](CC(N)=O)NC(=O)[C@@H](NC(=O)CNC(=O)[C@H](Cc4ccccc4)NC(=O)CN)CSSC[C@H](NC(=O)[C@H](Cc4ccc(O)cc4)NC(=O)CNC(=O)CNC(=O)[C@H](CCCCN)NC(=O)[C@H](Cc4ccc(O)cc4)NC(=O)CNC(=O)[C@H](CCCCN)NC1=O)C(=O)N[C@@H](C)C(=O)N[C@@H](CCCCN)C(=O)NCC(=O)NCC(=O)N[C@@H](Cc1ccccc1)C(=O)N[C@@H](C(C)C)C(=O)N3)C(=O)N[C@@H](Cc1c[nH]cn1)C(=O)N[C@@H](CC(N)=O)C(=O)N[C@@H](Cc1c[nH]cn1)C(=O)N2` [plectasin] was tested, and the “ATP leakage (intracellular ATP concentration)” value (S. aureus) was “remained at the same level as the controls”, the “Growth in the presence of plectasin” value [1] was “hardly affected the growth” and the “Growth in the presence of plectasin” value [2] was “inhibited the growth”. For the same compound, the “Expression of hrtB and hssR” value [3] was “no change of expression”, the “Abundance of extracellular proteins” value [4] was “no difference in the abundance of extracellular proteins” and the “Spontaneous mutations leading to changes in sensitivity” value (S. aureus wild type) was “no spontaneous mutations”.
